Assay results taken from patent publication US20240294499A1, “TARGETED PROTEIN DEGRADATION USING BIFUNCTIONAL COMPOUNDS THAT BIND UBIQUITIN LIGASE AND TARGET MCL-1 PROTEIN” (Captor Therapeutics S.A., priority 2021, published 2024).

Legend:
[1] = molecular target: [MCL-1]-[compound of formula (I)]-[CRBN/DDB1] complex (Homo sapiens, UniProt Q07820+Q96SW2); experiment: HTRF ternary complex assay; assay type: binding; conditions: ternary complex formation; read-out: HTRF ternary complex Average pEC50 by molecule (converted)
Method: The effect of the bifunctional compounds of the invention on the formation of a ternary complex composed of [MCL-1]-[compound of formula (I)]-[CRBN/DDB1] was investigated.
Mix of protein solution were prepared: • 48 nM hMcl-1 and 105.6 nM CRBN was prepared in PPI Europium detection buffer with 2 mM DTT. • Acceptor and donor stock solutions were diluted 100 times in PPI Europium detection buffer. Equal volumes of both reagents were mixed. Finally giving 3 nM of Streptavidin-Eu cryptate […] and 6.67 nM of Anti-6× his-d2 […].
5 μl of protein mix was dispensed to all wells. The tested compounds in dose-response were dispensed onto a white 384-well low volume plate (Greiner, 784075). DMSO was backfilled to all wells, resulting in a final DMSO content of 0.5%. Wells containing only DMSO served as background. Next, 5 μl of solution with donor and acceptor was added to the wells.
The plate was sealed with transparent film and shaken using a VibroTurbulator for 60 see at level 3. The plate was then spun down shortly (10 s, 1000 rcf) and incubated at 25° C. for 180 min.
The read-out was performed with plate reader (Pherastar, BMG Labtech) in time resolved fluorescence mode. Filterset: TR 337 665 620.
The results were analyzed as follows: • 1) an average of fluorescence for background signal was calculated and used as a negative control; • 2) raw fluorescence values for tested compounds were normalized against negative controls; • 3) bell shape curve was fitted to a gaussian distribution using a non-linear least squares Gauss-Newton algorithm; • 4) EC50 and pEC50 values were determined.

MV-4-11 cells = experiment: Cell viability assay (CellTiter-Glo), MV-4-11; assay type: cell-based; conditions: Homo sapiens, MV4-11, 24 hours incubation, 1% FBS, read-out: Average pIC50 by molecule MV-4-11 (converted)
Method in brief: (§1)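 OPM-2, MV-4-11 and ARH-77 cells were grown in medium with 1% FBS and treated with compound in 1/3 dilutions from 30 uM (9–12 points, 0.5% DMSO). Viability was read by CellTiter-Glo luminescence after 24 hours and normalized to DMSO control.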

ARH-77 cells = experiment: Cell viability assay (CellTiter-Glo), ARH-77; assay type: cell-based; conditions: Homo sapiens, ARH-77, 24 hours incubation, 1% FBS, read-out: Average pIC50 by molecule ARH-77 (converted)
Method in brief: as §1

[MCL-1]-[compound of formula (I)]-[CRBN/DDB1] complex, sequence (Q07820 whole entry): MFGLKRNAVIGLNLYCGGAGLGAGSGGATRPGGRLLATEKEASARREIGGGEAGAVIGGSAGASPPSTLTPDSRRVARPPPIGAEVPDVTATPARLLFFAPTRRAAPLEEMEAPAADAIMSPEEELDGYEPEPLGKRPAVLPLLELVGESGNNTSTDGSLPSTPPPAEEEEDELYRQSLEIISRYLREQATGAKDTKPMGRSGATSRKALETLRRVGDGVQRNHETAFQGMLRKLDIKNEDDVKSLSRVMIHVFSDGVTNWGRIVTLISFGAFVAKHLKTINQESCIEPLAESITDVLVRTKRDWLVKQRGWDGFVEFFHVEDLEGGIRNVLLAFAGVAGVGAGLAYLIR
[MCL-1]-[compound of formula (I)]-[CRBN/DDB1] complex, sequence (Q96SW2 whole entry): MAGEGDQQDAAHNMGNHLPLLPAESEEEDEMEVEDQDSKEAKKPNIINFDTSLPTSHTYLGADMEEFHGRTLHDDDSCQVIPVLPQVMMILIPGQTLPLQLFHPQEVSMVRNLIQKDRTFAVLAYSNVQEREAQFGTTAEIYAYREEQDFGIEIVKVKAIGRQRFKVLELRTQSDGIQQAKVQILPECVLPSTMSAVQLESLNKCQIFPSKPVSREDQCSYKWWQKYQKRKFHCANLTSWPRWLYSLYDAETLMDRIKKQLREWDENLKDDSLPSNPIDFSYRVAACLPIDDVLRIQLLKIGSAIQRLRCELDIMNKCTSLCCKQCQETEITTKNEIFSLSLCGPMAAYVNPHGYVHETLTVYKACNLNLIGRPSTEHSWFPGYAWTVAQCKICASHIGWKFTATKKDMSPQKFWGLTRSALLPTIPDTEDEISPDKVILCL
[MCL-1]-[compound of formula (I)]-[CRBN/DDB1] complex, sequence (Q16531 whole entry partner): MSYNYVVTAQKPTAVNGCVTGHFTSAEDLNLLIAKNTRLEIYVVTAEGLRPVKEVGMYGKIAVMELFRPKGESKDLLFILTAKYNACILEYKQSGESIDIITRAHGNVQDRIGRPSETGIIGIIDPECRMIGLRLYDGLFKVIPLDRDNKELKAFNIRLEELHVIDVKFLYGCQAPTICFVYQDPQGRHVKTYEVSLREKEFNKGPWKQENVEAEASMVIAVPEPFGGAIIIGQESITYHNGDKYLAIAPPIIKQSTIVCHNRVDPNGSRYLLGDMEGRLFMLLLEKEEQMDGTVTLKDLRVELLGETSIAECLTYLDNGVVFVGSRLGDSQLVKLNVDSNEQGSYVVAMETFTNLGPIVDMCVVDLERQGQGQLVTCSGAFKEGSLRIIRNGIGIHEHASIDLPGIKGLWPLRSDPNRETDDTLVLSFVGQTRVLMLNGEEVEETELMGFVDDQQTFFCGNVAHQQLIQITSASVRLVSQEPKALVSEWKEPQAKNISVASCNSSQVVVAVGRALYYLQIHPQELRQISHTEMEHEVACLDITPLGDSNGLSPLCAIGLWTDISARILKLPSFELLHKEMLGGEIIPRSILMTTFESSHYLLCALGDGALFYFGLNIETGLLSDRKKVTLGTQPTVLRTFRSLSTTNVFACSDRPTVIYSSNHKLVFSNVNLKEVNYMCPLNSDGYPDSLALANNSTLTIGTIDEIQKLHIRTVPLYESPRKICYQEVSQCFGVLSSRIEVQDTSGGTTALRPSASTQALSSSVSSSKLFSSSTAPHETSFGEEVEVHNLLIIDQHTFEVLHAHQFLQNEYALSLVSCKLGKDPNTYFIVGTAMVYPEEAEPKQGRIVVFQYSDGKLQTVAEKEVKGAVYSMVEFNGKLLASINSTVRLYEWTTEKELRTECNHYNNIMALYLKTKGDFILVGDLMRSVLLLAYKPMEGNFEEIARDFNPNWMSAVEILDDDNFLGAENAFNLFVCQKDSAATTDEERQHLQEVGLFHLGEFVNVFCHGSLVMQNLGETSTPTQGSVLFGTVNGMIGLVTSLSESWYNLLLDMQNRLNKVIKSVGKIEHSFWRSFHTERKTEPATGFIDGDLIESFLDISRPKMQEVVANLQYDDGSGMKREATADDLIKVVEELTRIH

SMILES	EC50 [1]	IC50 (MV-4-11 cells)	IC50 (ARH-77 cells)
Cc1noc(C)c1-c1c(Cl)ccc2c(CCCOc3cccc4cc(F)ccc34)c(C(=O)O)n(CCN3CCN(C(=O)COc4cccc5c4CN(C4CCC(=O)NC4=O)C5=O)CC3)c12 (stereo not shown) [Compound 347, 6-Chloro-7-(3,5-dimethylisoxazol-4-yl)-1-(2-(4-(2-((2-(2,6-dioxopiperidin-3-yl)-1-oxoisoindolin-4-yl)oxy)acetyl)piperazin-1-yl)ethyl)-3-(3-((6-fluoronaphthalen-1-yl)oxy)propyl)-1H-indole-2-carboxylic acid]	< 100 nM		
Cc1nc2cc(C(=O)N3CCN(CCn4c(C(=O)O)c(CCCOc5cccc6cc(F)ccc56)c5ccc(Cl)c(-c6c(C)nn(C)c6C)c54)CC3)ccc2cc1C1CCC(=O)NC1=O (stereo not shown) [Compound 291, 6-Chloro-1-(2-{4-[3-(2,6-dioxopiperidin-3-yl)-2-methylquinoline-7-carbonyl]piperazin-1-yl}ethyl)-3-{3-[(6-fluoronaphthalen-1-yl)oxy]propyl}-7-(1,3,5-trimethyl-1H-pyrazol-4-yl)-1H-indole-2-carboxylic acid]	< 100 nM		
Cc1nn(C)c(C)c1-c1c(Cl)ccc2c(CCCOc3cccc4cc(F)ccc34)c(C(=O)O)n(CCN3CCC(C(=O)N4CCN(c5cc6c(cc5F)C(=O)N(C5CCC(=O)NC5=O)C6=O)CC4)CC3)c12 (stereo not shown) [Compound 333, 6-Chloro-1-[2-(4-{4-[2-(2,6-dioxopiperidin-3-yl)-6-fluoro-1,3-dioxo-2,3-dihydro-1H-isoindol-5-yl]piperazine-1-carbonyl}piperidin-1-yl)ethyl]-3-{3-[(6-fluoronaphthalen-1-yl)oxy]propyl}-7-(1,3,5-trimethyl-1H-pyrazol-4-yl)-1H-indole-2-carboxylic acid]	< 10 nM	≤ 1000 nM	
Cc1nn(C)c(C)c1-c1c(Cl)ccc2c(CCCOc3cccc4cc(F)ccc34)c(C(=O)O)n(CCN3CCN(C(=O)CSc4cccc5c4CN(C4CCC(=O)NC4=O)C5=O)CC3)c12 (stereo not shown) [Compound 322, 6-Chloro-1-(2-(4-(2-((2-(2,6-dioxopiperidin-3-yl)-1-oxoisoindolin-4-yl)thio)acetyl)piperazin-1-yl)ethyl)-3-(3-((6-fluoronaphthalen-1-yl)oxy)propyl)-7-(1,3,5-trimethyl-1H-pyrazol-4-yl)-1H-indole-2-carboxylic acid]	< 100 nM		
Cc1nn(C)c(C)c1-c1c(Cl)ccc2c(CCCOc3cccc4cc(F)ccc34)c(C(=O)O)n(CCOCCCn3c(C)nc4c(C(=O)NC5CCC(=O)NC5=O)cccc43)c12 (stereo not shown) [Compound 282, 6-Chloro-1-[2-(3-{4-[(2,6-dioxopiperidin-3-yl)carbamoyl]-2-methyl-1H-1,3-benzodiazol-1-yl}propoxy)ethyl]-3-{3-[(6-fluoronaphthalen-1-yl)oxy]propyl}-7-(1,3,5-trimethyl-1H-pyrazol-4-yl)-1H-indole-2-carboxylic acid]	< 100 nM	≤ 31.6 nM	> 3160 nM
Cc1nn(C)c(C)c1-c1c(Cl)ccc2c(CCCOc3cccc4cc(F)ccc34)c(C(=O)O)n(CCN3CC4(CCN(C(=O)COc5cccc6c5CN(C5CCC(=O)NC5=O)C6=O)C4)C3)c12 (stereo not shown) [Compound 305, 6-Chloro-1-(2-(6-(2-((2-(2,6-dioxopiperidin-3-yl)-1-oxoisoindolin-4-yl)oxy)acetyl)-2,6-diazaspiro[3.4]octan-2-yl)ethyl)-3-(3-((6-fluoronaphthalen-1-yl)oxy)propyl)-7-(1,3,5-trimethyl-1H-pyrazol-4-yl)-1H-indole-2-carboxylic acid]	< 100 nM		
Cc1nn(C)c(C)c1-c1c(Cl)ccc2c(CCCOc3cccc4cc(F)ccc34)c(C(=O)O)n(CCN3CC4(CCCN(C(=O)COc5cccc6c5CN(C5CCC(=O)NC5=O)C6=O)C4)C3)c12 (stereo not shown) [Compound 304, 6-Chloro-1-(2-(6-(2-((2-(2,6-dioxopiperidin-3-yl)-1-oxoisoindolin-4-yl)oxy)acetyl)-2,6-diazaspiro[3.5]nonan-2-yl)ethyl)-3-(3-((6-fluoronaphthalen-1-yl)oxy)propyl)-7-(1,3,5-trimethyl-1H-pyrazol-4-yl)-1H-indole-2-carboxylic acid]	< 100 nM		
Cc1nn(C)c(C)c1-c1c(Cl)ccc2c(CCCOc3cccc4cc(F)ccc34)c(C(=O)O)n(CCN3CCC(N4CCN(c5cc6c(cc5F)C(=O)N(C5CCC(=O)NC5=O)C6=O)CC4)CC3)c12 (stereo not shown) [Compound 336, 6-Chloro-1-[2-(4-{4-[2-(2,6-dioxopiperidin-3-yl)-6-fluoro-1,3-dioxo-2,3-dihydro-1H-isoindol-5-yl]piperazin-1-yl}piperidin-1-yl)ethyl]-3-{3-[(6-fluoronaphthalen-1-yl)oxy]propyl}-7-(1,3,5-trimethyl-1H-pyrazol-4-yl)-1H-indole-2-carboxylic acid]	< 10 nM	≤ 100 nM	> 10000 nM
Cc1nn(C)c(C)c1-c1c(Cl)ccc2c(CCCOc3cccc4cc(F)ccc34)c(C(=O)O)n(CCN3CCN(C4CN(c5cc6c(cc5F)C(=O)N(C5CCC(=O)NC5=O)C6=O)C4)CC3)c12 (stereo not shown) [Compound 335, 6-Chloro-1-(2-(4-(1-(2-(2,6-dioxopiperidin-3-yl)-6-fluoro-1,3-dioxoisoindolin-5-yl)azetidin-3-yl)piperazin-1-yl)ethyl)-3-(3-((6-fluoronaphthalen-1-yl)oxy)propyl)-7-(1,3,5-trimethyl-1H-pyrazol-4-yl)-1H-indole-2-carboxylic acid]	< 10 nM	≤ 31.6 nM	> 3160 nM
Cc1nn(C)c(C)c1-c1c(Cl)ccc2c(CCCOc3cccc4cc(F)ccc34)c(C(=O)O)n(CCN3CCN(C(=O)C(C)(C)Oc4cccc5c4CN(C4CCC(=O)NC4=O)C5=O)CC3)c12 (stereo not shown) [Compound 311, 6-Chloro-1-{2-[4-(2-{[2-(2,6-dioxopiperidin-3-yl)-1-oxo-2,3-dihydro-1H-isoindol-4-yl]oxy}-2-methylpropanoyl)piperazin-1-yl]ethyl}-3-{3-[(6-fluoronaphthalen-1-yl)oxy]propyl}-7-(1,3,5-trimethyl-1H-pyrazol-4-yl)-1H-indole-2-carboxylic acid]	< 100 nM		
Cc1nn(C)c(C)c1-c1c(Cl)ccc2c(CCCOc3cccc4cc(F)ccc34)c(C(=O)O)n(CCN3CC4(C3)CN(C(=O)COc3cccc5c3CN(C3CCC(=O)NC3=O)C5=O)C4)c12 (stereo not shown) [Compound 303]	< 100 nM		
Cc1nc2ccc(C(=O)N3CCN(CCn4c(C(=O)O)c(CCCOc5cccc6cc(F)ccc56)c5ccc(Cl)c(-c6c(C)nn(C)c6C)c54)CC3)cc2cc1C1CCC(=O)NC1=O (stereo not shown) [Compound 290, 6-Chloro-1-(2-(4-(3-(2,6-dioxopiperidin-3-yl)-2-methylquinoline-6-carbonyl)piperazin-1-yl)ethyl)-3-(3-((6-fluoronaphthalen-1-yl)oxy)propyl)-7-(1,3,5-trimethyl-1H-pyrazol-4-yl)-1H-indole-2-carboxylic acid]	< 10 nM		
Cc1cc(OCCCc2c(C(=O)NS(=O)(=O)CCNC(=O)CCOCCOCCNc3cccc4c3C(=O)N(C3CCC(=O)NC3=O)C4=O)n(C)c3c(-c4c(C)nn(C)c4C)c(Cl)ccc23)cc(C)c1Cl (stereo not shown) [Compound 252, 6-chloro-3-(3-(4-chloro-3,5-dimethylphenoxy)propyl)-N-((2-(3-(2-(2-((2-(2,6-dioxopiperidin-3-yl)-1,3-dioxoisoindolin-4-yl)amino)ethoxy)ethoxy)propanamido)ethyl)sulfonyl)-1-methyl-7-(1,3,5-trimethyl-1H-pyrazol-4-yl)-1H-indole-2-carboxamide]	< 100 nM		
Cc1nc2cc(OCC(=O)N3CCN(CCn4c(C(=O)O)c(CCCOc5cccc6cc(F)ccc56)c5ccc(Cl)c(-c6c(C)nn(C)c6C)c54)CC3)ccc2cc1C1CCC(=O)NC1=O (stereo not shown) [Compound 288, 6-Chloro-1-(2-(4-(2-((3-(2,6-dioxopiperidin-3-yl)-2-methylquinolin-7-yl)oxy)acetyl)piperazin-1-yl)ethyl)-3-(3-((6-fluoronaphthalen-1-yl)oxy)propyl)-7-(1,3,5-trimethyl-1H-pyrazol-4-yl)-1H-indole-2-carboxylic acid]	< 100 nM		
Cc1nn(C)c(C)c1-c1c(Cl)ccc2c(CCCOc3cccc4cc(F)ccc34)c(C(=O)O)n(CCN3CC4(CCN(C(=O)COc5cccc6c5CN(C5CCC(=O)NC5=O)C6=O)CC4)C3)c12 (stereo not shown) [Compound 302, 6-Chloro-1-(2-(7-(2-((2-(2,6-dioxopiperidin-3-yl)-1-oxoisoindolin-4-yl)oxy)acetyl)-2,7-diazaspiro[3.5]nonan-2-yl)ethyl)-3-(3-((6-fluoronaphthalen-1-yl)oxy)propyl)-7-(1,3,5-trimethyl-1H-pyrazol-4-yl)-1H-indole-2-carboxylic acid]	< 10 nM		
